Results: patent publication US12590123B2, “Compounds and methods for treating cancer, viral infections, and allergic conditions” (Washington University, priority 2019, dated 2026)
Like-named read-outs stand apart in the source and are kept apart here.

Legend:
Type in all cases: biochemical
[1] = molecular target: T1, recombinant HGFA serine protease domain (Homo sapiens, UniProt Q04756); assay: Fluorescent kinetic enzyme assay of HGFA activity (Boc-QLR-AMC)
T1 construct: His6 tag (N); seven amino acid spacer plus TEV cleavage site (N); made in house; host or cells: High 5 insect cells (baculovirus; Sf9 for virus production)
T1 sequence (Q04756 373-655): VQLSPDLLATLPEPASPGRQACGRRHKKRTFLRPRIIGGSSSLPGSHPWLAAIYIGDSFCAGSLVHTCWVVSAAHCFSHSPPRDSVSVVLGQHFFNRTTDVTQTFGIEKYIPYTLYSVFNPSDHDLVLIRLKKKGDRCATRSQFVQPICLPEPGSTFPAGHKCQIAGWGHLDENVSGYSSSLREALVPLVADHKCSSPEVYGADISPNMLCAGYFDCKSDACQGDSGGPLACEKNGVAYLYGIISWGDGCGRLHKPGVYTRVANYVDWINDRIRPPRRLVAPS
Description: The compounds prepared in Examples 1 to 8 were subjected to a series of inhibitions studies. The compounds were first tested in an HGFA enzymatic assay using the fluorogenic substrate Boc-QLR-AMC with a recombinant form of the HGFA serine protease domain.
This PCR product was cloned into the SfoI-HindIII sites of a modified pFastBac HT baculovirus expression vector (Addgene, Cambridge, MA). This vector contains a six amino His tag followed by a seven amino spacer and a seven amino acid TEV cleavage site placed immediately downstream of the honey bee melittin signal peptide. Using a modified Bac to Bac Expression System (Life Technologies, Carlsbad, CA), recombinant HGFA bacmids were obtained by transforming DH10Bac Escherichia coli cells. To obtain HGFA containing baculovirus, purified bacmids were transfected into Sf9 insect cells. After 5 days in culture at 27° C., media was harvested from transfected Sf9 cells. This media was used to prepare baculovirus infected insect cells (BIICs). These BIIICs were used to infect High 5 insect cells. Four days post infection, media was harvested, and recombinant protein was prepared as follows. Media was chilled to 4° C. and spun at 4000×g for 20 minutes (all subsequent steps were performed at 4° C. unless noted). Clarified media was passed first through a Whatman GF/B 1 um (#1821-047, GE Healthcare Life Sciences, Piscataway, NJ) and then a 0.22 μm PES membrane (#99955, TPP Techno Plastic Products AG, Trasadingen, Switzerland) and then concentrated using a Pall Centramate tangential flow system and Centramate T-series Cassette (#OS010T12, Pall Corporation, Port Washington, NY). Concentrated media was then buffer exchanged in two steps, five volumes of 50 mM Na-phosphate, 500 mM NaCl, pH 6.2, followed by five volumes of 50 mM Na-phosphate, 500 mM NaCl, pH 7.5. […] After mixing this slurry for 12 hours, nickel agarose beads were allowed to settle by gravity and then loaded into a column. Beads were washed with buffer (25 mM Na-phosphate, 500 mM NaCl, 25 mM imidazole, pH 8) and the bound protein eluted using (25 mM Na-phosphate, 500 mM NaCl, 250 mM imidazole, pH 8). Using a Amicon Ultra-4 Centrifugal filters (#UFC801008, Merck Millipore, Ltd., Tullagreen, Ireland), peak protein fractions were concentrated and run over a Superdex-200 10/300 GL column (GE Healthcare Life Sciences, Piscataway, NJ) in 10 mM Tris, 200 mM NaCl, 0.2 mM EDTA, pH 8. HGFA containing fractions were pooled, concentrated, made 50% glycerol, and stored at minus 20° C. Protein was quantitated using a modified Lowry protein assay (#500-0006, Bio-Rad Laboratories, Hercules, CA) and specific activity determined using Boc-QLR-AMC substrate.
Fluorescent kinetic enzyme assays of HGFA, matriptase, and hepsin activity: Compounds (0-20 μM final concentration in reaction) were diluted in DMSO (2% DMSO final concentration in reaction) and then mixed with either recombinant HGFA serine protease domain, matriptase (#3946-SE-010, R&D Systems, Minneapolis, Minnesota), or activated hepsin* (#4776-SE-010, R&D Systems, Minneapolis, Minnesota) in black 384 well plates (Corning #3575. Coming, NY). The final assay concentration for HGFA, matriptase, and hepsin, were 6.25 nM, 0.2 nM, and 0.3 nM, respectively in TNC buffer (25 mM Tris, 150 mM NaCl, 5 mM CaCl2, 0.01% Triton X-100, pH 8). After thirty minutes of incubation at room temperature, Boc-QLR-AMC substrate was added (HGFA assay) or Boc-QAR-AMC substrate (matriptase, and hepsin assays). Fluorescence (excitation at 380 nm and emission at 460 nm) was kinetically measured at room temperature over a 1 hour time period using a Biotek Synergy 2 plate reader (Winnoski, VT). From a plot of the mean reaction velocity versus the inhibitor concentration, a non-linear four parameter curve fit was performed using GraphPad Prism (GraphPad Software, San Diego, CA) to determine inhibitor IC50s. The IC50 values were determined from the average of three or more separate experimental determinations. […]

matriptase = molecular target: T2, matriptase (Homo sapiens, UniProt Q9Y5Y6); assay: Fluorescent kinetic enzyme assay of matriptase activity (Boc-QAR-AMC); conditions: Table 2; read-out: Matriptase (IC50 nM)
T2 construct: purchased R&D Systems 3946-SE-010
T2 sequence (Q9Y5Y6 615-855 limits assumed): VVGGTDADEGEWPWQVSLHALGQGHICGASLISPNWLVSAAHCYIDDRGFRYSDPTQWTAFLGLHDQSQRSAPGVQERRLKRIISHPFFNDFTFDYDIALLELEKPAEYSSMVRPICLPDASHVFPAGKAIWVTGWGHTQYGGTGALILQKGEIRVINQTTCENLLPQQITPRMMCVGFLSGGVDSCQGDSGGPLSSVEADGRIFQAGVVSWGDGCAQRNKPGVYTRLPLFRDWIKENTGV

activated hepsin = molecular target: T3, activated hepsin (Homo sapiens, UniProt P05981); assay: Fluorescent kinetic enzyme assay of hepsin activity (Boc-QAR-AMC)
T3 construct: purchased R&D Systems 4776-SE-010

Factor Xa = Factor Xa (Homo sapiens, UniProt P00742); assay: Chromogenic kinetic enzyme assay of Factor Xa (S2222); conditions: Table 2; chromogenic assay; read-out: Factor Xa* (IC50 nM)
Procedure: Using GraphPad Prism (GraphPad Software, San Diego, CA), a four-parameter curve fit was used to determine the inhibitor IC50s from a plot of the mean reaction velocity versus the inhibitor concentration. The IC50 values represent the average of three or more separate experimental determinations. Apparent Ki values were calculated from the IC50 values using the Cheng and Prusoff equation (Ki=IC50/(1+[S]/Km).
Using GraphPad Prism version 6.04 software program, (GraphPad Software, San Diego, CA, graphpad.com), a four parameter curve fit was used to determine the inhibitor IC50s from a plot of the mean reaction velocity versus the inhibitor concentration.
Fluorescent inhibitor and chromogenic proteolytic assays were performed for compounds prepared in Example 11 in general accordance with the procedures described in Example 9.

[2] = Table 2, read-out: HGFA (IC50 nM)
[3] = Table 2, read-out: Hepsin (IC50 nM)
[4] = Table 3, average of three experiments, read-out: HGFA IC50
[5] = Example 12, read-out: IC50 for hepsin

T3 sequence (P05981 163-417 limits assumed): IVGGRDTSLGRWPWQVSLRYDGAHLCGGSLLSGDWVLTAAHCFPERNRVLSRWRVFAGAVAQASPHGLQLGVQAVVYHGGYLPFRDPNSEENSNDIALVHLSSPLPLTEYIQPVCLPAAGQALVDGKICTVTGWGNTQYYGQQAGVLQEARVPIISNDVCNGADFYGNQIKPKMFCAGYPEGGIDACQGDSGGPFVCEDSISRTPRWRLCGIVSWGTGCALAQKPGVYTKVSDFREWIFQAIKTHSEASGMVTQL
T3 sequence (P05981 1-162 partner limits assumed): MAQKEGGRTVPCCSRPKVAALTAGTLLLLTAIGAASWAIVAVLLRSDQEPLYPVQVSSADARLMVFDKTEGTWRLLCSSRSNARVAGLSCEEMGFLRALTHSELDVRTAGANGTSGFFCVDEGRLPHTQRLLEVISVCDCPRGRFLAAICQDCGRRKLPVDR
Chain of Factor Xa (P00742 235-488 limits assumed): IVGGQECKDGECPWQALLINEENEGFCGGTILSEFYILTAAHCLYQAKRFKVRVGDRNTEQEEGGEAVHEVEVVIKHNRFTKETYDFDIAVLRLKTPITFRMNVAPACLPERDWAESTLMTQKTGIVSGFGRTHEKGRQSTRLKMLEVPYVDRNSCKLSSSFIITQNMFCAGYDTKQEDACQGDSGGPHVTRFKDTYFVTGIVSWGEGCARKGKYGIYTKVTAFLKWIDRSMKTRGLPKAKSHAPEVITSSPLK
Chain of Factor Xa (P00742 41-179 partner limits assumed): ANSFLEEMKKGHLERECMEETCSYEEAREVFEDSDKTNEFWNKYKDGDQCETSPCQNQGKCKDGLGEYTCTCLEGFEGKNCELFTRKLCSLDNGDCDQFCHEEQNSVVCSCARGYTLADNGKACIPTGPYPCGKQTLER

IC50 [1, 2] [nM]	IC50 (matriptase) [nM]	IC50 (activated hepsin; [3]) [nM]	IC50 [1, 4] [nM]	IC50 (activated hepsin; [5]) [nM]	Structure (SMILES)	IC50 (Factor Xa) [nM]
4090	0.19	0.14	–	–	CC(=O)N[C@H]1CCCCNC(=O)CCC(C(=O)N[C@H](CCCNC(=N)N)C(=O)c2nc3ccccc3s2)NC(=O)[C@H](CCCNC(=N)N)NC1=O (stereo partly drawn) [VD2109A]	–
> 20000	11.5	11.9	–	–	CC(C)C[C@@H]1NC(=O)[C@@H](N)CCCCNC(=O)CC[C@@H](C(=O)N[C@@H](CCCNC(=N)N)C(=O)c2nc3ccccc3s2)NC1=O [VD2056, (2S,5S,14S)-14-amino-N—((S)-1-(benzo[d]thiazol-2-yl)-5-guanidino-1-oxopentan-2-yl)-2-isobutyl-3,8,15-trioxo-1,4,9-triazacyclopentadecane-5-carboxamide]	–
3510	111	23.9	–	–	CC(=O)N[C@@H](Cc1ccc(O)c([N+](=O)[O-])c1)C(=O)N[C@@H](CC(C)C)C(=O)N[C@@H](Cc1ccc(Br)cc1)C(=O)N[C@H](CCCNC(=N)N)C(=O)c1nc2ccccc2s1 [VD4112A]	–
197	31.6	1.14	–	–	CC(=O)N[C@H]1Cc2ccc(cc2)OC/C=C\C[C@@H](C(=O)NC(CCCNC(=N)N)C(=O)c2nc3ccccc3s2)NC(=O)[C@H](CC(C)C)NC1=O (stereo partly drawn) [VD4010A]	–
–	–	–	14000	8	CC(C)C[C@H](NC(=O)OC(c1ccccc1)C1CCNCC1)C(=O)N[C@@H](CCCNC(=N)N)C(=O)c1nc2ccccc2s1 (stereo partly drawn) [Compound 11a, phenyl(piperidin-4-yl)methyl ((S)-1-(((S)-1-(benzo[d]thiazol-2-yl)-5-guanidino-1-oxopentan-2-yl)amino)-4-methyl-1-oxopentan-2-yl)carbamate]	–
4750	19.1	10.1	–	–	C=CCNC(=O)CC[C@H](NC(=O)[C@H](CC(C)C)NC(=O)[C@H](Cc1ccc(OCC=C)cc1)NC(C)=O)C(=O)N[C@@H](CCCNC(=N)N)C(=O)c1nc2ccccc2s1 [VD4022, (S)-2-((S)-2-((S)-2-acetamido-3-(4-(allyloxy)phenyl)propanamido)-4-methylpentanamido)-N5-allyl-N1-((S)-1-(benzo[d]thiazol-2-yl)-5-guanidino-1-oxopentan-2-yl)pentanediamide]	–
> 20000	76.6	14	–	–	CC(=O)N[C@H]1Cc2ccc(cc2)OC/C=C\CNC(=O)C[C@@H](C(=O)N[C@H](CCCNC(=N)N)C(=O)c2nc3ccccc3s2)NC(=O)[C@H](CC(C)C)NC1=O [VD4054A]	–
5050	0.13	0.08	–	–	CC(=O)N[C@H]1CCCCNC(=O)CC[C@@H](C(=O)N[C@@H](CCCNC(=N)N)C(=O)c2nc3ccccc3s2)NC(=O)[C@H](CCCNC(=N)N)NC1=O [VD2109, (2S,5S,14S)-14-acetamido-N—((S)-1-(benzo[d]thiazol-2-yl)-5-guanidino-1-oxopentan-2-yl)-2-(3-guanidinopropyl)-3,8,15-trioxo-1,4,9-triazacyclopentadecane-5-carboxamide]	–
> 20000	1.1	92	–	–	CC(C)C[C@@H]1NC(=O)[C@@H](N)CCCCNC(=O)C[C@@H](C(=O)N[C@@H](CCCNC(=N)N)C(=O)c2nc3ccccc3s2)NC1=O [VD1185, (2S,5S,13S)-13-amino-N—((S)-1-(benzo[d]thiazol-2-yl)-5-guanidino-1-oxopentan-2-yl)-2-isobutyl-3,7,14-trioxo-1,4,8-triazacyclotetradecane-5-carboxamide]	–
–	–	–	20000	–	CC1CN(CC2CCN(Cc3ccccc3)CC2)C(=O)N(c2cccc(C(=N)N)c2)C1 (stereo not drawn) [SRI 31215, reference compound]	–
14000	9.49	1.15	–	–	CC(=O)N[C@@H](Cc1ccc(O)c([N+](=O)[O-])c1)C(=O)N[C@@H](CC(C)C)C(=O)N[C@@H](Cc1ccc(Br)cc1)C(=O)N[C@@H](CCCNC(=N)N)C(=O)c1nc2ccccc2s1 [VD4112]	–
–	–	–	6000	2	CC(C)C[C@H](NC(=O)OC(Cc1ccccc1)C1CCNCC1)C(=O)N[C@@H](CCCNC(=N)N)C(=O)c1nc2ccccc2s1 (stereo partly drawn) [Compound 11b, 2-phenyl-1-(piperidin-4-yl)ethyl ((S)-1-(((S)-1-(benzo[d]thiazol-2-yl)-5-guanidino-1-oxopentan-2-yl)amino)-4-methyl-1-oxopentan-2-yl)carbamate]	–

Structure (SMILES)	IC50 [1, 2] [nM]	IC50 (matriptase) [nM]	IC50 (activated hepsin; [3]) [nM]	IC50 [1, 4] [nM]	IC50 (activated hepsin; [5]) [nM]	IC50 (Factor Xa) [nM]
CC(=O)N[C@H]1CCC(=O)NCCCC[C@@H](C(=O)N[C@@H](CCCNC(=N)N)C(=O)c2nc3ccccc3s2)NC(=O)[C@H](CC(C)C)NC1=O [VD2169, (2S,5S,14S)-14-acetamido-N—((S)-1-(benzo[d]thiazol-2-yl)-5-guanidino-1-oxopentan-2-yl)-2-isobutyl-3,11,15-trioxo-1,4,10-triazacyclopentadecane-5-carboxamide]	–	3.1	8.4	–	–	1710
CC(=O)N[C@H]1Cc2ccc(cc2)OCCCC[C@@H](C(=O)N[C@H](CCCNC(=N)N)C(=O)c2nc3ccccc3s2)NC(=O)[C@H](Cc2ccccc2)NC1=O [VD4111A]	3280	330	12.7	–	–	–
CC(C)C[C@H](NC(=O)OC1(c2ccccc2)CCNCC1)C(=O)N[C@@H](CCCNC(=N)N)C(=O)c1nc2ccccc2s1 [Compound 8a, 4-phenylpiperidin-4-yl ((S)-1-(((S)-1-(benzo[d]thiazol-2-yl)-5-guanidino-1-oxopentan-2-yl)amino)-4-methyl-1-oxopentan-2-yl)carbamate]	–	–	–	780	–	–
